# Assay results as given in ChEMBL document CHEMBL2010683, “Discovery of the first small molecule inhibitor of human DDX3 specifically designed to target the RNA binding site: towards the next generation HIV-1 inhibitors” (Bioorg Med Chem Lett, 2012).
# Tests used:
# [1] = biological target: T1, ATP-dependent RNA helicase DDX1 (Homo sapiens, UniProt Q92499); assay: Inhibition of human recombinant DDX1 helicase activity expressed in Escherichia coli assessed as conversion of a 6-FAM-labeled double stranded RNA in to single stranded nucleic acid by laser scanning densitometric analysis
# T1 sequence (Q92499 whole entry): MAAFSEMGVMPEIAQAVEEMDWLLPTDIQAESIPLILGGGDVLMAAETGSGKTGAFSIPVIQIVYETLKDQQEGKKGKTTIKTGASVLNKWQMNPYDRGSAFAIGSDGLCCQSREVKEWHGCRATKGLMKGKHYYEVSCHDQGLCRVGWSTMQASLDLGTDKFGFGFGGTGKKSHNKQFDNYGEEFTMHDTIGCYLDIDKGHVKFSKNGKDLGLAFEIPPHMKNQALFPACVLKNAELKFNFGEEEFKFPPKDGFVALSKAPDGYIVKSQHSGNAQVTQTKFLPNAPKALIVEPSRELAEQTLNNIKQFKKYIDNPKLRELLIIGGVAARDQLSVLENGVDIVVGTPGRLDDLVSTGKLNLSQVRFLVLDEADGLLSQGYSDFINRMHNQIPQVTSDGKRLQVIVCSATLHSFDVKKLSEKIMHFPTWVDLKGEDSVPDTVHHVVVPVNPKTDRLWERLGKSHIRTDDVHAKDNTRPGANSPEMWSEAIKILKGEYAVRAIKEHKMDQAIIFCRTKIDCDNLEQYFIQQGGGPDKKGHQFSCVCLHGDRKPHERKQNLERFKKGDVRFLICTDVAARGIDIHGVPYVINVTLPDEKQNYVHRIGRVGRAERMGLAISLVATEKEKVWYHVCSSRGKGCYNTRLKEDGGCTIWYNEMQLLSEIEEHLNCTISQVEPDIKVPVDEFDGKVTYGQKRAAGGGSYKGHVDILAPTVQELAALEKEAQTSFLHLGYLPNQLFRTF
# [2] = biological target: T2, ATP-dependent RNA helicase DDX3X (Homo sapiens, UniProt O00571)
# Target sequence in this assay (O00571 2-662 limits assumed): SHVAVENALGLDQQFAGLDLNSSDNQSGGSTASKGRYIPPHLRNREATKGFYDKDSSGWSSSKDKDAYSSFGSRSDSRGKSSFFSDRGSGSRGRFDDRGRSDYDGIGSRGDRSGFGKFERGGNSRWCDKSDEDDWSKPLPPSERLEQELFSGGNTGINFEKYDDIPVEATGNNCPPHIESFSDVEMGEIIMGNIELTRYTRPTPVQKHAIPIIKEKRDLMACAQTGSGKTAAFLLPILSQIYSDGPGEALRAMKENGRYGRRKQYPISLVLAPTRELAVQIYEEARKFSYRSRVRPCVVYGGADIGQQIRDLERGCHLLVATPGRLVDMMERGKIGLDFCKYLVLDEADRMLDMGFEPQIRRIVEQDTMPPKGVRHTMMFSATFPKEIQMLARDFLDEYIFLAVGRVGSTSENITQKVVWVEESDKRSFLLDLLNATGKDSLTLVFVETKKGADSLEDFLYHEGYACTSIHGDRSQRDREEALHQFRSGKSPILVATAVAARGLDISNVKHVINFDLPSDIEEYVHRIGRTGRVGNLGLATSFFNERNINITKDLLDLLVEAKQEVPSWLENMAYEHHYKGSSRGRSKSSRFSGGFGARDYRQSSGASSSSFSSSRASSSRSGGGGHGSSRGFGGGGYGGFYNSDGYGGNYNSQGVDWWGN
# Description: Competitive inhibition of human recombinant DDX3 expressed in Escherichia coli using 25 nM double strand 18/36mer RNA substrate by PAGE analysis
# [3] = Inhibition of Hepatitis C virus NS3 helicase expressed in Escherichia coli assessed as conversion of a 6-FAM-labeled double stranded RNA in to single stranded nucleic acid by laser scanning densitometric analysis; design: species or system Hepacivirus hominis
# [4] = Selectivity ratio of CC50 for human PBMC cells to EC50 for multidrug-resistant HIV1 infected in phytohemagglutininin-P-stimulated human PBMC cells; type: ADME, cell-based; conditions: read-out: Ratio CC50/EC50
# [5] = biological target: T2, ATP-dependent RNA helicase DDX3X; assay: Inhibition of human recombinant DDX3 ATPase activity expressed in Escherichia coli assessed as [gamma-32P] ATP hydrolysis after 5 mins by densitometric analysis
# Target sequence in this assay (O00571 whole entry): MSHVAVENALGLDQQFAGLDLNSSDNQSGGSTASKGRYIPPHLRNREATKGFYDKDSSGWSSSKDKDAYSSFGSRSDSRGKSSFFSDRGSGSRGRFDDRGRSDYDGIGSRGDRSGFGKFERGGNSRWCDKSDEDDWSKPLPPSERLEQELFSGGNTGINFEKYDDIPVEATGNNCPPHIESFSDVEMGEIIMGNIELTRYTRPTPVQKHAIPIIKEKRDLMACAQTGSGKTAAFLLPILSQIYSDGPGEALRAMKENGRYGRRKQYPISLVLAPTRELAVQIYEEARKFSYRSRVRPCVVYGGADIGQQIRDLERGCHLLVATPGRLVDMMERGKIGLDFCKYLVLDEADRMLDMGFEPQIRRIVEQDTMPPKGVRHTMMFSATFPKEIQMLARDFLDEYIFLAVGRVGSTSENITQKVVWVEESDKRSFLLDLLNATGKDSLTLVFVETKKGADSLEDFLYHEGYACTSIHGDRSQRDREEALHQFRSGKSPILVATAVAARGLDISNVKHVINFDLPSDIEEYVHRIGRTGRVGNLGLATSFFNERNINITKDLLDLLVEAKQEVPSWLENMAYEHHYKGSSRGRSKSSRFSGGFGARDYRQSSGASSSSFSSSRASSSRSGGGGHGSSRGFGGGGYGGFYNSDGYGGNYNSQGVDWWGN
# [6] = test system: Human immunodeficiency virus 1; assay: Antiviral activity against multidrug-resistant HIV1 infected in phytohemagglutininin-P stimulated human PBMC cells assessed as inhibition of viral replication after 72 hrs post infection; type: functional, organism-based; conditions: Human immunodeficiency virus 1, PBMC
# [7] = biological target: T2, ATP-dependent RNA helicase DDX3X; remark: listed apart in the source
# Target sequence in this assay (O00571 2-662 limits assumed): as the sequence (O00571 2-662 limits assumed) above
# Description: Competitive inhibition of human recombinant DDX3 expressed in Escherichia coli using 50 nM double strand 18/36mer RNA substrate by PAGE analysis
# [8] = biological target: T2, ATP-dependent RNA helicase DDX3X; assay: Inhibition of human recombinant DDX3 helicase activity expressed in Escherichia coli assessed as conversion of a 6-FAM-labeled double stranded RNA in to single stranded nucleic acid by laser scanning densitometric analysis
# Target sequence in this assay (O00571 whole entry): as the sequence (O00571 whole entry) above
# [9] = biological target: T2, ATP-dependent RNA helicase DDX3X; remark: listed apart in the source
# Target sequence in this assay (O00571 2-662 limits assumed): as the sequence (O00571 2-662 limits assumed) above
# Description: Competitive inhibition of human recombinant DDX3 expressed in Escherichia coli using 100 nM double strand 18/36mer RNA substrate by PAGE analysis
# [10] = Cytotoxicity against human PBMC cells assessed as cell viability after 72 hrs by MTS assay; type: cell-based
IC50 [1],IC50 [3],IC50 [5],IC50 [8],SMILES,ID50 [2],selectivity ratio [4],EC50 [6],ID50 [7],ID50 [9],CC50 at 72 h [10]
> 500 µM,> 500 µM,> 1000 µM,6 µM,Cc1[nH]c2ccccc2c1C1=CC(c2ccccc2)=NN=C(c2ccccc2)C1,–,–,–,–,–,–
> 500 µM,> 500 µM,> 1000 µM,–,Nc1cccc(NC(=O)Nc2cccc(N)c2)c1,–,–,–,–,–,–
> 500 µM,> 500 µM,> 1000 µM,42 µM,O=C(Nc1ccc(-c2nc3ccccc3[nH]2)cc1)c1cc2ccccc2o1,–,–,–,–,–,–

# Further lines, the compound ahead of its results:
SMILES,IC50 [1],IC50 [3],IC50 [5],IC50 [8],ID50 [2],selectivity ratio [4],EC50 [6],ID50 [7],ID50 [9],CC50 at 72 h [10]
Cc1ccccc1NC(=O)Nc1cccc(N)c1,> 500 µM,> 500 µM,40 µM,5 µM,4.5 µM,10,15 µM,435 µM,950 µM,100 µM
O=C(Nc1cccc([N+](=O)[O-])c1)Nc1cccc([N+](=O)[O-])c1,> 500 µM,> 500 µM,> 1000 µM,–,–,–,–,–,–,–
Cc1ccccc1NC(=O)Nc1cccc(NC(=O)Nc2ccccc2C)c1,> 500 µM,> 500 µM,17 µM,65 µM,–,–,–,–,–,–
Cc1ccccc1NC(=O)Nc1cccc([N+](=O)[O-])c1,> 500 µM,> 500 µM,20 µM,–,–,10,10 µM,–,–,100 µM
